# In patent US9616025B2, “Compressed tablet containing Δ9-tetrahydrocannabinol, method for its manufacture and use of such tablet in oral treatment” (Echo Pharmaceuticals B.V., priority 2013, dated 2017):
# Like-named read-outs stand apart in the source and are kept apart here.
# Legend:
# [1] = Rate of dissolution of THC, Ph. Eur. 2.9.3, 1 wt % SDS in water pH 7; assay type: physicochemical; conditions: 5 mg THC, pH 7, 36-41° C.
# Protocol: The rate of dissolution of THC from the compressed tablets described in Example 2 was tested according to European Pharmacopeia (Ph. Eur. 2.9.3) for oral tablets (5 mg THC). The rate of dissolution of pure THC (5 mg) was also measured according to the same method for comparison.
# The dissolution medium consisted of a solution of 1 wt % SDS in water. The pH of the medium had been adjusted to pH 7 with diluted HCl. During the experiments, the temperature of the dissolution media was maintained between 36 and 41° C. under stirring.
# After dropping the tablets in the dissolution medium, samples were taken at various time intervals with a disposable syringe. The samples were filtered immediately over a syringe filter into a HPLC vial and analyzed by HPLC.
# Tablets were prepared as in Example 2, except that the sucrose fatty ester (SML) was substituted by glyceryl monostearate (GMS). Dissolution tests as described in example 3 were performed with these tablets and the tablets described in Example 2.
# [2] = cited from earlier work; for reported tmax-values: previous studies
smiles,measurement,setting,value
"CCCCCc1cc(O)c2c(c1)OC(C)(C)[C@@H]1CCC(C)=C[C@@H]21 [THC, Δ9-tetrahydrocannabinol]",% (w/w) of THC dissolved,[1]; 1 min,1.0 % (w/w)
same,% (w/w) of THC dissolved,[1]; 4 min,3.5 % (w/w)
same,% (w/w) of THC dissolved,[1]; 8 min,5.8 % (w/w)
same,% (w/w) of THC dissolved,[1]; 15 min,10.2 % (w/w)
same,Plasma THC maximum concentrations,[2]; after a 20 mg dose of oral THC (Ohlsson 1980),4.4 to 11.0 µg/L
same,bioavailability,[2]; inhaled (Ohlsson 1982),up to 27%
same,time of peak concentrations post dose,[2]; oral,1 to 5 h
same,bioavailability,[2]; orally administered (Ohlsson 1982),approximately 6%
same,reported tmax-values,[2],1 to 4 h
CCCCCc1cc(O)c2c(c1)OC(C)(C)[C@@H]1CCC(C)=C[C@@H]21 [dronabinol],time to maximal concentration of the active metabolite 11-OHTHC,[2]; published,120 to 204 min
CCCCCCC(C)(C)c1cc(O)c2c(c1)OC(C)(C)C1CCC(=O)CC21 (centres unmarked) [nabilone],reported tmax-values,[2],2 to 4 h
